Publication PMC6017357, “In Vitro Inhibitory Effects of Synthetic Cannabinoid EAM-2201 on Cytochrome P450 and UDP-Glucuronosyltransferase Enzyme Activities in Human Liver Microsomes” (Molecules : A Journal of Synthetic Chemistry and Natural …, 2018)

Target: T1, UGT1A4 (Homo sapiens, UniProt P22310)
T1 construct: ultrapooled human liver microsomes (0.2 mg/mL), 5 mM UDPGA; from tissue; host or cells: ultrapooled human liver microsomes
T1 sequence (P22310 29-534): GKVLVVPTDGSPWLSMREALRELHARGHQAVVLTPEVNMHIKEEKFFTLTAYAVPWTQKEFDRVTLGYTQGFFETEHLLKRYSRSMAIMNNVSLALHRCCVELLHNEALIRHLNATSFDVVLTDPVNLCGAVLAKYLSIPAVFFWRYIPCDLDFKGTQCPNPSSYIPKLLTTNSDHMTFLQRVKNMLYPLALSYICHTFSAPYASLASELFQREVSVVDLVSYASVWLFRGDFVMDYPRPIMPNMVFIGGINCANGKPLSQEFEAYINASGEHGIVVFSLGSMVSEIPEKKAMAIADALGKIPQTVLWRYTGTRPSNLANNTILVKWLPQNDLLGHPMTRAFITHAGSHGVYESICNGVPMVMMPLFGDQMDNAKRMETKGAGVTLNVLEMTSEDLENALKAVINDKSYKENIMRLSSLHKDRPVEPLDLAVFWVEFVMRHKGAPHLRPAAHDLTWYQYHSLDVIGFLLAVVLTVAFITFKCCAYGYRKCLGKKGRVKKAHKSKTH
Test: UGT1A4-catalyzed trifluoperazine N-glucuronidation in human liver microsomes
Assay type: in vitro ADME
Settings: at 50 µM
Method: The inhibitory effects of EAM-2201 on UGT1A1, UGT1A3, UGT1A4, UGT1A6, UGT1A9 and UGT2B7 were evaluated using LC-MS/MS and the cocktail of UGT substrates as previously described. Each incubation mixture was prepared in a final volume of 100 µL as follows: ultrapooled human liver microsomes (0.2 mg/mL), 5 mM UDPGA, 10 mM magnesium chloride, alamethicin (25 µg/mL), 50 mM Tris buffer (pH 7.4), various concentrations of EAM-2201 in DMSO (final concentrations of 1–50 µM, 0.5% DMSO) and the UGT enzyme-specific substrates of two cocktail sets (set A: 0.5 µM SN-38, 2 µM chenodeoxycholic acid and 0.5 µM trifluoperazine; set B: 1 µM N-acetylserotonin, 0.2 µM mycophenolic acid and 1 µM naloxone, acetonitrile content, 0.5%). […] Supernatant from sets A and B (50 µL of each) was mixed and aliquots (5 µL) were analyzed by LC-MS/MS. […]
The metabolites formed from the six UGT cocktail substrates were simultaneously measured using LC-MS/MS [41]. […] Each metabolite was quantified via SRM in the negative ion mode: chenodeoxycholic acid 24-acyl-β-glucuronide, 567.2 > 391.0; mycophenolic acid glucuronide, 495.2 > 318.9; and propofol glucuronide (IS), 353.3 > 177.1; and in the positive ion mode: SN-38 glucuronide, 569.0 > 393.0; trifluoperazine glucuronide, 584.2 > 408.1; N-acetylserotonin-β-D-glucuronide, 395.2 > 219.0; naloxone 3-β-D-glucuronide, 504.0 > 310.0; and meloxicam (IS), 352.0 > 115.1. […]

CCc1ccc(C(=O)c2cn(CCCCCF)c3ccccc23)c2ccccc12 [EAM-2201, (4-ethyl-1-naphthalenyl)[1-(5-fluoropentyl)-1H-indol-3-yl]-methanone]
inhibition of UGT1A4-catalyzed trifluoperazine N-glucuronidation: negligibly inhibited
